Read-outs that look alike come from different tables or passages of the source.
Experiment: Measurement of LogP values by HPLC on reversed phase columns (EEC directive 79/831 Annex V.A8)
Type: physicochemical
Settings: for chromatographic logP: reversed phase HPLC columns
[1] = acidic range, 0.1% formic acid in water and acetonitrile as eluent
[2] = acidic range, 0.1% formic acid in water and acetonitrile as eluent, read-out: logP (HCOOH)[a]

| Compound | logP (HCOOH)[a] [1] | also measured |
| --- | --- | --- |
| O=C(NCC(F)(F)c1ccc(-c2cccc(OC(F)(F)F)c2)cc1Cl)c1ccccc1C(F)(F)F [Example 42] | 4.61 | – |
| CC(=O)N1CCN(c2ccc(-c3ccc(C(F)(F)CNC(=O)c4ccccc4C(F)(F)F)c(Cl)c3)cc2)CC1 [Example 104] | 3.17 | – |
| O=C(NCC(F)(F)c1ccc(-c2ccc(F)cc2)cc1Cl)c1ccccc1Br [Example 58] | 4.05 | – |
| O=C(NCC(F)(F)c1ccc(-c2cc(F)c(F)c(F)c2)cc1Cl)c1ccccc1I [Example 114] | 4.34 | – |
| O=C(NCC(F)(F)c1ccc(-c2cccc(C(F)(F)F)c2)cc1Cl)c1ccccc1C(F)(F)F [Example 67] | 4.55 | – |
| N#Cc1cc(-c2ccc(SC(F)(F)F)cc2)ccc1C(F)(F)CNC(=O)c1ccccc1C(F)(F)F [Example 83] | 4.5 | – |
| O=C(NCC(F)(F)c1ccc(-c2ccc(N3CCOCC3)cc2)cc1Cl)c1ccccc1C(F)(F)F [Example 75] | 3.83 | – |
| O=C(NCC(F)(F)c1c(F)cc(-c2ccc(OC(F)(F)F)cc2)cc1F)c1ccccc1C(F)(F)F [Example 48] | 4.56 | – |
| CS(=O)(=O)c1ccc(-c2ccc(C(F)(F)CNC(=O)c3ccccc3C(F)(F)F)c(Cl)c2)cc1 [Example 24] | – | chromatographic logP [2]: 2.99 |
| NCC(F)(F)c1ccc(-c2ccc(F)cc2)cc1Cl [Example VII-1, 2-[2-chloro-4-(4-fluorophenyl)phenyl]-2,2-difluoro-ethanamine] | – | chromatographic logP [2]: 1.35; chromatographic logP (neutral range, 0.001 molar ammonium acetate solution in water and acetonitrile as eluent, read-out: LogP[b]): 3.1 |
| O=C(NCC(F)(F)c1ccc(-c2ccc(F)cc2)cc1Cl)c1ccccc1Cl [Example 59] | 4.0 | – |
| Cc1cc(-c2cccc(C(F)F)c2)ccc1C(F)(F)CNC(=O)c1ccccc1C(F)(F)F [Example 90] | 4.07 | – |
| Cc1cc(-c2cc(Cl)c(F)c(Cl)c2)ccc1C(F)(F)CNC(=O)c1ccccc1C(F)(F)F [Example 128] | 5.08 | – |
| N#Cc1ccc(-c2ccc(C(F)(F)CNC(=O)c3ccccc3C(F)(F)F)c(Cl)c2)c(F)c1 [Example 93] | 3.76 | – |
| O=C(NCC(F)(F)c1c(F)cc(-c2ccc(C(F)F)cc2)cc1F)c1ccccc1C(F)(F)F [Example 81] | 3.9 | – |
| O=C(NCC(F)(F)c1c(F)cc(-c2ccc(C(F)(F)F)cc2)cc1F)c1ccccc1C(F)(F)F [Example 86] | 4.38 | – |
| O=C(NCC(F)(F)c1ccc(-c2ccc3c(c2)OC(F)(F)O3)cc1Cl)c1ccccc1C(F)(F)F [Example 71] | 4.57 | – |
| N#Cc1ccc(-c2ccc(C(F)(F)CNC(=O)c3ccccc3C(F)(F)F)c(C#N)c2)cc1 [Example 73] | 1.33 | – |
| Cc1cc(-c2ccc(C(F)F)cc2)ccc1C(F)(F)CNC(=O)c1ccccc1C(F)(F)F [Example 80] | 4.06 | – |
| COc1cc(-c2cccc(C(F)F)c2)ccc1C(F)(F)CNC(=O)c1ccccc1C(F)(F)F [Example 92] | 3.81 | – |
| O=C(NCC(F)(F)c1ccc(-c2ccc(C(F)F)cc2)cc1Cl)c1ccccc1C(F)(F)F [Example 40] | 3.99 | – |
| O=C(NCC(F)(F)c1c(F)cc(-c2cccc(C(F)F)c2)cc1F)c1ccccc1C(F)(F)F [Example 82] | 3.83 | – |
| O=C(NCC(F)(F)c1ccc(-c2ccc(OC(F)(F)F)cc2)cc1Cl)c1ccccc1C(F)(F)F [Example 39] | 4.67 | – |
| O=C(NCC(F)(F)c1ccc(-c2cc(F)c(OC(F)F)c(F)c2)cc1Cl)c1ccccc1C(F)(F)F [Example 66] | 4.20 | – |
| O=C(NCC(F)(F)c1ccc(-c2ccc(N3CCOCC3)c(F)c2)cc1Cl)c1ccccc1C(F)(F)F [Example 113] | 4.05 | – |
| O=C(NCC(F)(F)c1ccc(-c2ccc([S+]([O-])C(F)(F)F)cc2)cc1Cl)c1ccccc1C(F)(F)F (centres unmarked) [Example 56] | 3.87 | – |
| CC(=O)Nc1ccc(-c2ccc(C(F)(F)CNC(=O)c3ccccc3C(F)(F)F)c(Cl)c2)cc1 [Example 30] | – | chromatographic logP [2]: 2.93 |
| O=C(NCC(F)(F)c1ccc(-c2cc(F)c(F)c(F)c2)cc1Cl)c1nccnc1C(F)(F)F [Example 111] | 4.05 | – |

Reference: patent publication US20170320848A1, “COMPOUNDS FOR USE IN ANTHELMINTHIC TREATMENT” (Bayer Animal Health GMBH, priority 2014, published 2017)
